# Laboratory results from US20080051332A1, “METHOD OF MODULATING HEMATOPOIETIC STEM CELLS AND TREATING HEMATOLOGIC DISEASES USING INTRANASAL PARATHYROID HORMONE” (Nastech Pharmaceutical Company Inc., priority 2005, published 2008).
# Entries after “also recorded” stand apart in the source; their conditions may differ. Read-outs that look alike come from different tables or passages of the source. Ends that are not written are not given here.
# Experiments:
# [1] = tested on: normal, human-derived tracheal/bronchial epithelial cells (EpiAirway™ Tissue Model); assay type: in vitro ADME
# Protocol: (§1) The effect of various “Generally Regarded As Safe” (GRAS) permeation enhancers was measured in a MatTek cell model. Three GRAS permeation enhancers (EDTA, ethanol, Tween 80) were evaluated individually or in combination with one another. Sorbitol was used as a tonicifier to adjust the osmolarity of formulations to 220 mOsm/kg whenever applicable. The formulation pH was adjusted to 4. The permeation enhancer combination of 45 mg/ml M-β-CD, 1 mg/ml DDPC, and 1 mg/ml EDTA at pH 4.5 served as the positive control. The formulation contains sorbitol only was used as the negative control. Each formulation is evaluated in the presence and absence of preservative. For all formulations, sodium benzoate is used as the preservative.
# (§2) The cell line MatTek Corp. (Ashland, Mass.) are normal, human-derived tracheal/bronchial epithelial cells (EpiAirway™ Tissue Model). Cells are cultured for 24-48 hours before use to produce a tissue insert.
# Each tissue insert is placed in an individual well containing 1 ml media. On the apical surface of the inserts, 100 μl of test formulation is applied, and the sample is shaken for 1 h at 37° C. […] Transepithelial electrical resistance (TER) is measured before and after the 1-h incubation. Following the incubation, the cell inserts are analyzed for cell viability via the mitochondrial dehydrogenase (MDH) assay. […]
# [2] = tested on: human chondrocyte cell monolayer; experiment: Human chondrocyte monolayer proliferation (MTT); assay type: cell-based; settings: MTT at t=0 and after 4 days at 37° C./5% CO2
# Text: A human chondrocyte cell monolayer model was employed to examine cell proliferation in the presence of PTH in a simple formulation (FORSTEO) or a formulation containing PTH and the formulation enhancers (sample 1, above). These were compared to a positive control (media containing antibiotics, insulin, TGF-beta and IGF-1) and negative control (media devoid of any cell growth components). It was desired to understand if the presence of PTH could stimulate chondrocyte growth. To this end, the above mentioned formulations and controls were applied to the apical side of the chondrocyte monolayers, and the MTT assay (Example 3) was conducted at t=0 and then after 4 days incubation at 37° C./5% CO2.
# Human chondrocytes = experiment: Alginate-based cartilage growth model, type II collagen production; assay type: cell-based
# Protocol: Next, the alginate-based cell system (cartilage growth model) was used to determine whether PTH dosing could stimulate chondrocytes to produce cartilage. […] Type II collagen is a major component of the extracellular matrix of nasal cartilage and therefore was used as a molecular marker for cartilage growth in this assay.
# The cell-containing alginate beads were incubated in the presence of various test solutions for 12 days at 37° C., 5% CO2. After the incubation, the alginate beads were processed using an extraction method in order to quantify the production of type II collagen.
# The effect of PTH on Type II collagen production was studied. The positive control in this study was re-differentiation media and the negative control was growth media. PTH was tested in a range of 20 μg to 200 μg as FORSTEO or a formulation containing the formulation enhancers (sample 1, above).
# In addition, type II collagen production was assessed in the presence of a formulation containing 5 μg of insulin-like growth factor I (IGF-I). IGF-I is known to be a potent promoter of cartilage type-II collagen expression in chondrocytes and thus is an ideal positive control for the assay.
# [3] = 100 μg/day by injection, preliminary results; cited from earlier work
# hematopoietic stem cells = settings: mice, Calvi et al. 2003; cited from earlier work
# [4] = after feeding to rats; cited from earlier work
# ciliary motility = settings: pyo compound without obvious ultrastructural lesions; phenazine derivative with some membrane disruption; cited from earlier work
# [5] = tested on: normal, human-derived tracheal/bronchial epithelial cells (EpiAirway™ Tissue Model); experiment: Transepithelial electrical resistance (TER) in MatTek EpiAirway tissue model; assay type: cell-based; settings: 100 μl formulation on apical surface, 1 h at 37° C., TER before and after
# Protocol: The effect of various “Generally Regarded As Safe” (GRAS) permeation enhancers was measured in a MatTek cell model. Three GRAS permeation enhancers (EDTA, ethanol, Tween 80) were evaluated individually or in combination with one another. Sorbitol was used as a tonicifier to adjust the osmolarity of formulations to 220 mOsm/kg whenever applicable. The formulation pH was adjusted to 4. The permeation enhancer combination of 45 mg/ml M-β-CD, 1 mg/ml DDPC, and 1 mg/ml EDTA at pH 4.5 served as the positive control. The formulation contains sorbitol only was used as the negative control. Each formulation is evaluated in the presence and absence of preservative. […]
# (§3) Each tissue insert is placed in an individual well containing 1 ml media. […] Transepithelial electrical resistance (TER) is measured before and after the 1-h incubation. Following the incubation, the cell inserts are analyzed for cell viability via the mitochondrial dehydrogenase (MDH) assay.
# TER measurements are accomplished using the Endohm-12 Tissue Resistance Measurement Chamber connected to the EVOM Epithelial Volt-ohmmeter (World Precision Instruments, Sarasota, Fla.) with the electrode leads. […] The background resistance is measured with 1.5 ml Media in the Endohm tissue chamber and 300 μl Media in the blank insert. […] Resistance is expressed as (resistance measured−blank)×0.6 cm^2. […]
# [6] = tested on: normal, human-derived tracheal/bronchial epithelial cells (EpiAirway™ Tissue Model); experiment: Cell viability, MTT assay, EpiAirway tissue inserts; assay type: cell-based; settings: after 1 h incubation with formulation
# Protocol: as §1, §2, §3
# Cell viability is assessed using the MTT assay (MTT-100, MatTek kit). […] The optical density of the samples was measured at 550 nm on a plate reader.
# [7] = tested on: normal, human-derived tracheal/bronchial epithelial cells (EpiAirway™ Tissue Model); experiment: Cytotoxicity, LDH assay, EpiAirway tissue inserts; assay type: cell-based; settings: after 1 h incubation with formulation
# Protocol: The effect of various “Generally Regarded As Safe” (GRAS) permeation enhancers was measured in a MatTek cell model. Three GRAS permeation enhancers (EDTA, ethanol, Tween 80) were evaluated individually or in combination with one another. Sorbitol was used as a tonicifier to adjust the osmolarity of formulations to 220 mOsm/kg whenever applicable. The formulation pH was adjusted to 4. The permeation enhancer combination of 45 mg/ml M-β-CD, 1 mg/ml DDPC, and 1 mg/ml EDTA at pH 4.5 served as the positive control. The formulation contains sorbitol only was used as the negative control. Each formulation is evaluated in the presence and absence of preservative. For all formulations, sodium benzoate is used as the preservative. […]
# as §3
# The amount of cell death is assayed by measuring the loss of lactate dehydrogenase (LDH) from the cells using a CytoTox 96 Cytoxicity Assay Kit (Promega Corp., Madison, Wis.). LDH analysis of the apical media is evaluated. […] Following incubation, 50 μl of stop solution is added to each well and the plates read on an optical density plate reader at 490 nm.
# [8] = anesthetized rats, cited from earlier work
compound,measurement,setting,value
"CC[C@H](C)[C@H](NC(=O)[C@H](CCC(=O)O)NC(=O)[C@H](CO)NC(=O)[C@@H](NC(=O)[C@@H](N)CO)C(C)C)C(=O)N[C@@H](CCC(N)=O)C(=O)N[C@@H](CC(C)C)C(=O)N[C@@H](CCSC)C(=O)N[C@@H](Cc1cnc[nH]1)C(=O)N[C@@H](CC(N)=O)C(=O)N[C@@H](CC(C)C)C(=O)NCC(=O)N[C@@H](CCCCN)C(=O)N[C@@H](Cc1cnc[nH]1)C(=O)N[C@@H](CC(C)C)C(=O)N[C@@H](CC(N)=O)C(=O)N[C@@H](CO)C(=O)N[C@@H](CCSC)C(=O)N[C@@H](CCC(=O)O)C(=O)N[C@@H](CCCN=C(N)N)C(=O)N[C@H](C(=O)N[C@@H](CCC(=O)O)C(=O)N[C@@H](Cc1c[nH]c2ccccc12)C(=O)N[C@@H](CC(C)C)C(=O)N[C@@H](CCCN=C(N)N)C(=O)N[C@@H](CCCCN)C(=O)N[C@@H](CCCCN)C(=O)N[C@@H](CC(C)C)C(=O)N[C@@H](CCC(N)=O)C(=O)N[C@@H](CC(=O)O)C(=O)N[C@H](C(=O)N[C@@H](Cc1cnc[nH]1)C(=O)N[C@@H](CC(N)=O)C(=O)N[C@@H](Cc1ccccc1)C(=O)O)C(C)C)C(C)C [Teriparatide, teriparatide]",impact of preservative on Teriparatide permeation,[1],no significant impact
same,chondrocyte proliferation,[2],does not promote growth of chondrocytes
same,type II collagen production,"Human chondrocytes; 20 μg of PTH, citrate buffer or with permeation enhancers, 12 days",did not induce a substantial production of type II collagen
same,type II collagen production,"Human chondrocytes; high concentration of PTH (200 μg) in a simple formulation, 12 days, listed as PTH",a significant increase in type II collagen was observed; also recorded: modest amounts of type II collagen production
same,type II collagen production,"Human chondrocytes; high concentration of PTH in the presence of permeation enhancers, 12 days, listed as PTH",essentially no production of type II collagen; also recorded: did not induce any cartilage growth
same,success rates in bone marrow transplant patients,[3],improves success rates
same,number of functional HSCs and survival after bone marrow transplantation,hematopoietic stem cells,increases the number of functional HSCs and survival after bone marrow transplantation
Phaseolus vulgaris hemagglutinin,oral bioavailability,[4],more than 10%
2-alkyl-4-hydroxyquinolines [pyo compound],concentration producing ciliostasis / inhibiting ciliary motility,ciliary motility,50 µg/mL
"calcitonin (CGNLSTCMLGTYTQDFNKFHTFPQTAIGVGAP; ends and bridges not checked; cysteine pairing not given here; UniProt P01258 85-116, looked up)",type II collagen production,Human chondrocytes; 20 μg or 200 μg calcitonin,no effect
insulin-like growth factor I [IGF-I],type II collagen production,"Human chondrocytes; 5 μg IGF-I, positive control",greater than 1.2 pg per culture
Triton X,TER reduction,[5],significant TER reduction
same,cell viability (MTT assay),[6],significant reduction of cell viability
same,cytotoxicity (LDH assay),[7],significant cytotoxicity
human growth hormone,nasal bioavailability,[8]; with N-acetyl-L-cysteine (ACS),12.2%
same,nasal bioavailability,[8]; without N-acetyl-L-cysteine,7.5%
